Biological target: h-cGAS (Homo sapiens (Human), UniProt Q8N884)
Experiment: h-cGAS Kinase-Glo assay
Assay type: biochemical
Details: Kinase-Glo Max; 40 nM h-cGAS, 100 uM ATP, 100 uM GTP, 25 nM dsDNA, 2 h incubation

h-cGAS, sequence (Q8N884 whole entry): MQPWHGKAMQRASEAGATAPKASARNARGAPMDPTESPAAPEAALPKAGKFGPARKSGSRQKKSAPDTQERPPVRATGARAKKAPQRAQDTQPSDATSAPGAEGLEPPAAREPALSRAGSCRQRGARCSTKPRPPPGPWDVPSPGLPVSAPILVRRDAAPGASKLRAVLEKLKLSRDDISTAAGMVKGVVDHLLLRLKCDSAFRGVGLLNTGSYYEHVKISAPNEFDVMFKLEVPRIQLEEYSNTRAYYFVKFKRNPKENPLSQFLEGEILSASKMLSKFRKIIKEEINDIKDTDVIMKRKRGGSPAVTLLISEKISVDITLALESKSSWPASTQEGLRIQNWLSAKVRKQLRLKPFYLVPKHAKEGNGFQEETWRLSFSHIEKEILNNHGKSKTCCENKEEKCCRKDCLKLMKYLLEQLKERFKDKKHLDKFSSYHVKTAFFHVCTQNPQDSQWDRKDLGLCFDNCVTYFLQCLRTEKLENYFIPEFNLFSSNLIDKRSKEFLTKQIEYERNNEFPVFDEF

| Compound | IC50 [nM] |
| --- | --- |
| COCC(=O)N1[C@H](C)Cc2[nH]c3c(Cl)c(Cl)ccc3c2[C@@H]1C [Compound 104] | 51.7 |
| COCC(=O)N1CCc2[nH]c3c(Cl)c(Cl)cc(-c4ccn(C)n4)c3c2[C@H]1C [Compound 105] | 3820 |
| COCC(=O)N1CCc2[nH]c3c(Cl)c(Cl)cc(-c4ccn(C)n4)c3c2[C@@H]1C [Compound 106] | 4550 |
| COCC(=O)N1CCc2[nH]c3c(Cl)c(F)ccc3c2[C@H]1C [Compound 107] | 51.8 |
| COCC(=O)N1[C@@H](C)Cc2[nH]c3c(Cl)c(Cl)ccc3c2[C@@H]1C [Compound 108] | 62.3 |
| COCC(=O)N1[C@H](C)Cc2[nH]c3c(Cl)c(Cl)ccc3c2[C@@H]1C [Compound 109] | 15.1 |
| COCC(=O)N1Cc2c([nH]c3c(Cl)c(Cl)ccc23)C2CCCCC21 (centres unmarked) [Compound 110] | 2230 |
| COCC(=O)N1Cc2c([nH]c3c(Cl)c(Cl)ccc23)CC1Cc1ccccc1 (centres unmarked) [Compound 113] | 4230 |
| COCC(=O)N1Cc2c([nH]c3c(Cl)c(Cl)ccc23)C[C@@H]1C(C)C [Compound 114] | 718 |
| COCC(=O)N1Cc2c([nH]c3c(Cl)c(Cl)ccc23)C[C@H]1C(F)(F)F [Compound 115] | 1380 |
| COCC(=O)N1Cc2c([nH]c3c(Cl)c(Cl)cc(-c4ccn(C)n4)c23)C[C@H]1C [Compound 116] | 157 |
| COCC(=O)N1Cc2c([nH]c3c(Cl)c(Cl)cc(-c4ccn(C)n4)c23)C[C@@H]1C [Compound 117] | 221 |
| COCC(=O)N1Cc2c([nH]c3c(F)c(Br)ccc23)C[C@H]1C [Compound 126] | 387 |

Next, values leading:

| IC50 [nM] | Compound |
| --- | --- |
| 401 | COCC(=O)N1Cc2c([nH]c3c(Cl)c(Cl)ccc23)C[C@@H]1C [Compound 111] |
| 236 | COCC(=O)N1Cc2c([nH]c3c(Cl)c(Cl)ccc23)C[C@H]1C [Compound 112] |
| 316 | COCC(=O)N1Cc2c([nH]c3c(F)c(Cl)ccc23)C[C@@H]1C [Compound 118] |
| 470 | CC[C@H]1Cc2[nH]c3c(Cl)c(Cl)ccc3c2CN1C(=O)COC [Compound 119] |
| 361 | COCC(=O)N1Cc2c([nH]c3c(F)c(Cl)ccc23)C[C@H]1C [Compound 120] |
| 7630 | COCC(=O)N1Cc2c([nH]c3c(Br)c(Cl)ccc23)C[C@H]1C [Compound 121] |
| 205 | COCC(=O)N1Cc2c([nH]c3c(Cl)c(Br)ccc23)C[C@H]1C [Compound 122] |
| 133 | COCC(=O)N1Cc2c([nH]c3c(Br)c(Cl)ccc23)C[C@@H]1C [Compound 123] |
| 1330 | COCC(=O)N1Cc2c([nH]c3c(Cl)c(F)ccc23)C[C@H]1C [Compound 124] |
| 756 | COCC(=O)N1Cc2c([nH]c3c(Cl)c(C)ccc23)C[C@@H]1C [Compound 125] |
